Earlier results, collected in PubChem BioAssay AID1259409 (Chemical Carcinogenesis Research Information System (CCRIS), 2018).

System: rodent chemically induced tumor inhibition, incidence and multiplicity
Test: CCRIS tumor inhibitor studies

O=P(O)(O)OC1C(OP(=O)(O)O)C(OP(=O)(O)O)C(OP(=O)(O)O)C(OP(=O)(O)O)C1OP(=O)(O)O (stereo not given)
tumour outcome (control, treated, inhibition, significance) (Carcinogen: 2,2'-DIHYDROXY-DI-N-PROPYLNITROSAMINE, 53609-64-6, N-ETHYL-N-HYDROXYETHYLNITROSAMINE, 13147-25-6, 3,2'-DIMETHYL-4-AMINO-, Carcinogen: 2,2'-DIHYDROXY-DI-N-PROPYLNITROSAMINE, 53609-64-6, N-ETHYL-N-HYDROXYETHYLNITROSAMINE, 13147-25-6, 3,2'-DIMETHYL-4-AMINO-, Dose [Inhibitor]: 0, 2% IN DIET FOR 32 WK BEGINNING 1 WK POST CARCINOGEN TREATMENT (STUDY DURATION: 36 WK), Route [Inhibitor]: ORAL, Species: RAT, Strain/Sex: F344/MALE, Target Tissue: Type of Lesion: LUNG: CARCINOMA, Dose [Carcinogen]: 1000 MG/KG BW DHPN TWICE, 1500 MG/KG BW EHEN TWICE, 75 MG/KG BW 3 TIMES ADMINISTERED OVER FIRST 3 WK, Promoter: NONE USED): 1/14 (7%), 3/12 (25%), -257%, not significant | tumour outcome (control, treated, inhibition, significance) (Carcinogen: 2,2'-DIHYDROXY-DI-N-PROPYLNITROSAMINE, 53609-64-6, N-ETHYL-N-HYDROXYETHYLNITROSAMINE, 13147-25-6, 3,2'-DIMETHYL-4-AMINO-, Carcinogen: 2,2'-DIHYDROXY-DI-N-PROPYLNITROSAMINE, 53609-64-6, N-ETHYL-N-HYDROXYETHYLNITROSAMINE, 13147-25-6, 3,2'-DIMETHYL-4-AMINO-, Dose [Inhibitor]: 0, 2% IN DIET FOR 32 WK BEGINNING 1 WK POST CARCINOGEN TREATMENT (STUDY DURATION: 36 WK), Route [Inhibitor]: ORAL, Species: RAT, Strain/Sex: F344/MALE, Target Tissue: Type of Lesion: THYROID GLAND: ADENOMA, Dose [Carcinogen]: 1000 MG/KG BW DHPN TWICE, 1500 MG/KG BW EHEN TWICE, 75 MG/KG BW 3 TIMES ADMINISTERED OVER FIRST 3 WK, Promoter: NONE USED): 3/14 (21%), 3/12 (25%), -19%, not significant | tumour outcome (control, treated, inhibition, significance) (Carcinogen: 2,2'-DIHYDROXY-DI-N-PROPYLNITROSAMINE, 53609-64-6, N-ETHYL-N-HYDROXYETHYLNITROSAMINE, 13147-25-6, 3,2'-DIMETHYL-4-AMINO-, Carcinogen: 2,2'-DIHYDROXY-DI-N-PROPYLNITROSAMINE, 53609-64-6, N-ETHYL-N-HYDROXYETHYLNITROSAMINE, 13147-25-6, 3,2'-DIMETHYL-4-AMINO-, Dose [Inhibitor]: 0, 2% IN DIET FOR 32 WK BEGINNING 1 WK POST CARCINOGEN TREATMENT (STUDY DURATION: 36 WK), Route [Inhibitor]: ORAL, Species: RAT, Strain/Sex: F344/MALE, Target Tissue: Type of Lesion: URINARY BLADDER: CARCINOMA, Dose [Carcinogen]: 1000 MG/KG BW DHPN TWICE, 1500 MG/KG BW EHEN TWICE, 75 MG/KG BW 3 TIMES ADMINISTERED OVER FIRST 3 WK, Promoter: NONE USED): 1/14 (7%), 2/12 (17%), -143%, not significant | outcome (Carcinogen: 2,2'-DIHYDROXY-DI-N-PROPYLNITROSAMINE, 53609-64-6, N-ETHYL-N-HYDROXYETHYLNITROSAMINE, 13147-25-6, 3,2'-DIMETHYL-4-AMINO-, Carcinogen: 2,2'-DIHYDROXY-DI-N-PROPYLNITROSAMINE, 53609-64-6, N-ETHYL-N-HYDROXYETHYLNITROSAMINE, 13147-25-6, 3,2'-DIMETHYL-4-AMINO-, Dose [Inhibitor]: 0, 2% IN DIET FOR 32 WK BEGINNING 1 WK POST CARCINOGEN TREATMENT (STUDY DURATION: 36 WK), Route [Inhibitor]: ORAL, Species: RAT, Strain/Sex: F344/MALE, Target Tissue: Type of Lesion: URINARY BLADDER: PAPILLOMA, Dose [Carcinogen]: 1000 MG/KG BW DHPN TWICE, 1500 MG/KG BW EHEN TWICE, 75 MG/KG BW 3 TIMES ADMINISTERED OVER FIRST 3 WK, Promoter: NONE USED): 0/14 (0%), 6/12 (50%), -100%, p<0.01 | tumour outcome (control, treated, inhibition, significance) (Carcinogen: 2,2'-DIHYDROXY-DI-N-PROPYLNITROSAMINE, 53609-64-6, N-ETHYL-N-HYDROXYETHYLNITROSAMINE, 13147-25-6, 3,2'-DIMETHYL-4-AMINO-, Carcinogen: 2,2'-DIHYDROXY-DI-N-PROPYLNITROSAMINE, 53609-64-6, N-ETHYL-N-HYDROXYETHYLNITROSAMINE, 13147-25-6, 3,2'-DIMETHYL-4-AMINO-, Dose [Inhibitor]: 0, 2% IN DIET FOR 32 WK BEGINNING 1 WK POST CARCINOGEN TREATMENT (STUDY DURATION: 36 WK), Route [Inhibitor]: ORAL, Species: RAT, Strain/Sex: F344/RAT, Target Tissue: Type of Lesion: LARGE INTESTINE: ADENOMA, Dose [Carcinogen]: 1000 MG/KG BW DHPN TWICE, 1500 MG/KG BW EHEN TWICE, 75 MG/KG BW 3 TIMES ADMINISTERED OVER FIRST 3 WK, Promoter: NONE USED): 7/14 (50%), 5/12 (42%), 16%, not significant | tumour outcome (control, treated, inhibition, significance) (Carcinogen: 7,12-DIMETHYLBENZ(A)ANTHRACENE, 57-97-6, Dose [Inhibitor]: 0, 1 MG IN 100 µL ACETONE IMMEDIATELY AFTER CARCINOGEN DOSE 2/WK FOR 30 WK (STUDY DURATION: 30 WK), Route [Inhibitor]: DERMAL, Species: MOUSE, Strain/Sex: SWISS/FEMALE, Target Tissue: Type of Lesion: SKIN: TUMOR, Dose [Carcinogen]: 5 UG IN 100 µL ACETONE 2/WK FOR 30 WK): 8/8 (100%), 4/14 (26%), 74%, not calculated | tumour outcome (control, treated, inhibition, significance) (Carcinogen: 7,12-DIMETHYLBENZ(A)ANTHRACENE, 57-97-6, Dose [Inhibitor]: 0, 5 MG IN 100 µL ACETONE IMMEDIATELY AFTER CARCINOGEN DOSE 2/WK FOR 30 WK (STUDY DURATION: 30 WK), Route [Inhibitor]: DERMAL, Species: MOUSE, Strain/Sex: SWISS/FEMALE, Target Tissue: Type of Lesion: SKIN: TUMOR, Dose [Carcinogen]: 5 UG IN 100 µL ACETONE 2/WK FOR 30 WK): 8/8 (100%), 1/14 (6.6%), 93%, not calculated | tumour outcome (control, treated, inhibition, significance) (Carcinogen: 7,12-DIMETHYLBENZ(A)ANTHRACENE, 57-97-6, Dose [Inhibitor]: 0, 100 UG IN 100 µL ACETONE IMMEDIATELY AFTER CARCINOGEN DOSE 2/WK FOR 30 WK (STUDY DURATION: 30 WK), Route [Inhibitor]: DERMAL, Species: MOUSE, Strain/Sex: SWISS/FEMALE, Target Tissue: Type of Lesion: SKIN: TUMOR, Dose [Carcinogen]: 5 UG IN 100 µL ACETONE 2/WK FOR 30 WK): 8/8 (100%), 5/13 (40%), 60%, not calculated | tumour outcome (control, treated, inhibition, significance) (Carcinogen: 7,12-DIMETHYLBENZ[A]ANTHRACENE [57-97-6], Dose [Inhibitor]: 2% IN DIET FOR 35 WK BEGINNING 1 WK POST LAST CARCINOGEN DOSE (STUDY DURATION: 35 WK), Route [Inhibitor]: ORAL, Species: RAT, Strain/Sex: SPRAGUE-DAWLEY/FEMALE, Target Tissue: Type of Lesion: MAMMARY GLAND: CARCINOMA, Dose [Carcinogen]: 50 MG/KG BW ONCE (STUDY DURATION: 36 WK), Promoter: NONE): 14/15 (93%), 14/15 (93%), 0%, not significant | tumour outcome (control, treated, inhibition, significance) (Carcinogen: 7,12-DIMETHYLBENZ[A]ANTHRACENE [57-97-6], Dose [Inhibitor]: 2% IN DIET FOR 35 WK BEGINNING 1 WK POST LAST CARCINOGEN DOSE (STUDY DURATION: 35 WK), Route [Inhibitor]: ORAL, Species: RAT, Strain/Sex: SPRAGUE-DAWLEY/FEMALE, Target Tissue: Type of Lesion: MAMMARY GLAND: FIBROADENOMA, Dose [Carcinogen]: 50 MG/KG BW ONCE (STUDY DURATION: 36 WK), Promoter: NONE): 3/15 (20%), 4/15 (27%), -35%, not significant
